Results: ChEMBL document CHEMBL5550206, “Identification of 6-Fluorine-Substituted Coumarin Analogues as POLRMT Inhibitors with High Potency and Safety for Treatment of Pancreatic Cancer” (J Med Chem, 2024)
Activity calls are given as the source filed them. No cut-off for these calls is given here.

Legend:
[1] = Toxicity in BALB/c mouse xenografted with human MIA PaCa-2 cells assessed as pathological change in heart at 100 mg/kg, iv once daily for 25 consecutive day after 2 weeks of cells injection by H and E staining based optical microscopic analysis; format: organism-based; details: in vivo, 336 h
[2] = target: DNA-directed RNA polymerase, mitochondrial (Homo sapiens) (UniProt O00411); assay: Inhibition of human POLRMT in human MIA PaCa-2 cells assessed as mitochondria coded ubiquinone oxidoreductase core subunit 1 (ND I) transcript level at 500 nM measured after 24 hrs by RT-qPCR analysis relative to control; set-up: scale not given: the % may be the effect or the level left
[3] = Toxicity in BALB/c mouse xenografted with human MIA PaCa-2 cells assessed as pathological change in lung at 100 mg/kg, iv once daily for 25 consecutive day after 2 weeks of cells injection by H and E staining based optical microscopic analysis; format: organism-based; details: in vivo, 336 h
MIA PaCa-2 [4] = assay: Reduction in number of mitochondria in human MIA PaCa-2 cells measured after 96 hrs by Mito-Tracker Green and DAPI staining based assay; format: functional, cell-based; details: dose 10-1000 nM
MIA PaCa-2 [5] = assay: Effect on mitochondrial membrane potential loss in human MIA PaCa-2 cells assessed as change in membrane potential at 0.1 to 5 uM incubated for 96 hrs by JC-1 staining based flow cytometry analysis; format: functional, cell-based; details: dose 0.1-5 µM
[6] = Toxicity in BALB/c mouse xenografted with human MIA PaCa-2 cells assessed as pathological change in liver at 100 mg/kg, iv once daily for 25 consecutive day after 2 weeks of cells injection by H and E staining based optical microscopic analysis; format: organism-based; details: in vivo, 336 h
MIA PaCa-2 [7] = assay: Antiproliferative activity against human MIA PaCa-2 cells assessed as cell viability measured after 168 hrs incubation by SRB assay; format: functional, cell-based; details: MIA PaCa-2, 168 h
CAPAN-1 = assay: Antiproliferative activity against human CAPAN-1 cells assessed as cell viability measured after 168 hrs incubation by SRB assay; format: functional, cell-based; details: CAPAN-1, 168 h
MIA PaCa-2 [8] = assay: Induction of intracellular ROS generation in human MIA PaCa-2 cells at 0.1 to 5 uM incubated for 96 hrs by DCFH-DA staining based flow cytometry; format: functional, cell-based; details: dose 0.1-5 µM
[9] = Toxicity in BALB/c mouse xenografted with human MIA PaCa-2 cells assessed as pathological change in kidney at 100 mg/kg, iv once daily for 25 consecutive day after 2 weeks of cells injection by H and E staining based optical microscopic analysis; format: organism-based; details: in vivo, 336 h
[10] = Antiproliferative activity against human […] cells assessed as cell viability measured after 168 hrs incubation by SRB assay; format: functional, cell-based
[11] = Antiproliferative activity against HUVEC cells assessed as cell viability measured after 168 hrs incubation by SRB assay; format: toxicity, cell-based; details: human
PANC-1 = assay: Antiproliferative activity against human PANC-1 cells assessed as cell viability measured after 168 hrs incubation by SRB assay; format: functional, cell-based; details: PANC-1, 168 h
MIA PaCa-2 [12] = assay: In vivo antitumor activity against human MIA PaCa-2 cells xenografted in BALB/c mouse assessed as reduction in tumor weight at 100 mg/kg, iv once daily for 25 consecutive day after 2 weeks of cells injection relative to control; format: functional; details: MIA PaCa-2, 600 h, time 25 day
[13] = Toxicity in BALB/c mouse xenografted with human MIA PaCa-2 cells assessed as pathological change in spleen at 100 mg/kg, iv once daily for 25 consecutive day after 2 weeks of cells injection by H and E staining based optical microscopic analysis; format: organism-based; details: in vivo, 336 h
MIA PaCa-2 [14] = assay: Potency index, ratio of IMT1B IC50 to test compound […] for antiproliferative activity against human MIA PaCa-2 cells assessed as cell viability measured after 168 hrs incubation by SRB assay; format: functional

DNA-directed RNA polymerase, mitochondrial (Homo sapiens), sequence (O00411 whole entry): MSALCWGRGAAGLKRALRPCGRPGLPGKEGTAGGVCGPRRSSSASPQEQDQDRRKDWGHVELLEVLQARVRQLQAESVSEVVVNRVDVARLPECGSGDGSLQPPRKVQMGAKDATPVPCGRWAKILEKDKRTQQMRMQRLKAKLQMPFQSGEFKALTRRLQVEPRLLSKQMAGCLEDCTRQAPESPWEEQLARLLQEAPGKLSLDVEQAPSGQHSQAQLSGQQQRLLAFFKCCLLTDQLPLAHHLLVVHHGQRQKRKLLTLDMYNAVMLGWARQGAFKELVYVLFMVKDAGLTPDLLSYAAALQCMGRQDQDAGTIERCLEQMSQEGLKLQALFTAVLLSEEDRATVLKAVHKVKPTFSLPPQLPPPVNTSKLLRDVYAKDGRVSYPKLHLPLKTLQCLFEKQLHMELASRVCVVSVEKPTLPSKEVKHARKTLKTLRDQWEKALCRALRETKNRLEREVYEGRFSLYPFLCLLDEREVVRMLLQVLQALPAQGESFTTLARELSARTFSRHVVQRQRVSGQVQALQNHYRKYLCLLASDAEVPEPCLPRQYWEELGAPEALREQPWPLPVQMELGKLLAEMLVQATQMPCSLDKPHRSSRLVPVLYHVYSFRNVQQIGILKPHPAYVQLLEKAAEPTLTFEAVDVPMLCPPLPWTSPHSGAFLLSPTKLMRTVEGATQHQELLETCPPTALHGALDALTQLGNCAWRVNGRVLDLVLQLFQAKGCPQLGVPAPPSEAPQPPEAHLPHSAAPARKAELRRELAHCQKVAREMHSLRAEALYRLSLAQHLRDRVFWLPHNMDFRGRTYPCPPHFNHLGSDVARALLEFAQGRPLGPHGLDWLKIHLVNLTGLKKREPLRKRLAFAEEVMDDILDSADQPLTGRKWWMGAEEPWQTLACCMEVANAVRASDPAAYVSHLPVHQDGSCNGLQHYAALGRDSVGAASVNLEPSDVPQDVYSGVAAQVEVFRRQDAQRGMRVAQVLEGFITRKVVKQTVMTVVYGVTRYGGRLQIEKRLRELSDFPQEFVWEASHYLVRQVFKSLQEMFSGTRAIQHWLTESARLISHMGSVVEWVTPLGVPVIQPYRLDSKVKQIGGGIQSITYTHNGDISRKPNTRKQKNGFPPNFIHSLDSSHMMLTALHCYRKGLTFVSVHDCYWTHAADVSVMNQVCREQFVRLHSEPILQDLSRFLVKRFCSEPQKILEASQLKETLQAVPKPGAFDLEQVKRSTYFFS

Row | SMILES | Activity [2] [%] | IC50 (MIA PaCa-2 [7]) [nM] | further results
1 | C[C@@H](Oc1ccc2c(-c3ccc(F)cc3Cl)cc(=O)oc2c1)C(=O)N1CCC[C@H](C(=O)O)C1 | 23 | 159 | Activity [1]: Non-Toxic; Activity [3]: Non-Toxic; Activity (MIA PaCa-2 [4]): Dose-Dependent Effect; Activity (MIA PaCa-2 [5]): inactive; Activity [6]: Non-Toxic; IC50 (CAPAN-1): 1350 nM; Activity (MIA PaCa-2 [8]): inactive; Activity [9]: Non-Toxic; IC50 [10]: 67 nM; IC50 at 168 h [11]: > 50000 nM; IC50 (PANC-1): 1570 nM; inhibition in vivo at 100 mg/kg (MIA PaCa-2 [12]): 44.8%; Activity [13]: Non-Toxic
2 | C[C@@H](Oc1cc2oc(=O)cc(-c3ccc(F)cc3Cl)c2cc1F)C(=O)N1CCC[C@H](C(=O)O)C1 | 22 | 145 | 
3 | CC(C)c1cc2c(-c3ccc(F)cc3Cl)cc(=O)oc2cc1O[C@H](C)C(=O)N1CCC[C@H](C(=O)O)C1 | 46 | 1090 | 
4 | CO[C@H]1CC[C@@H](NC(=O)[C@@H](C)Oc2cc3oc(=O)cc(-c4ccc(F)cc4Cl)c3cc2F)CC1 | 52 | 2230 | 
5 | C[C@@H](Oc1cc2oc(=O)cc(-c3ccc(F)cc3Cl)c2cc1F)C(=O)N1CCC(F)(F)CC1 | 28 | 377 | 
6 | C[C@@H](Oc1cc2oc(=O)cc(-c3ccc(F)cc3Cl)c2cc1F)C(=O)N1CCCOCC1 | 15 | 72 | 
7 | C[C@@H](Oc1cc2oc(=O)cc(-c3ccc(F)cc3Cl)c2cc1F)C(=O)N1CCC(F)CC1 | 19 | 115 | 
8 | C[C@@H](Oc1cc2oc(=O)cc(-c3ccc(F)cc3Cl)c2cc1F)C(=O)N1CCC(Cl)CC1 | 34 | 523 | 
9 | C[C@@H](Oc1ccc2c(-c3ccc(F)cc3Cl)cc(=O)oc2c1Cl)C(=O)N1CCC[C@H](C(=O)O)C1 | 119 | > 5000 | 
10 | C[C@@H](Oc1cc2oc(=O)cc(-c3ccc(F)cc3Cl)c2cc1F)C(=O)N1CCCC(C#N)C1 (stereo partly drawn) | 26 | 305 | 
11 | C[C@@H](Oc1cc2oc(=O)cc(-c3ccc(F)cc3Cl)c2cc1Cl)C(=O)N1CCC[C@H](C(=O)O)C1 | 30 |  | 
12 | C[C@@H](Oc1cc(Cl)c2c(-c3ccc(F)cc3Cl)cc(=O)oc2c1)C(=O)N1CCC[C@H](C(=O)O)C1 | 85 | > 5000 | 
13 | COc1cc2c(-c3ccc(F)cc3Cl)cc(=O)oc2cc1O[C@H](C)C(=O)N1CCC[C@H](C(=O)O)C1 | 67 | > 5000 | 

Continued, in another order:

Row | Activity [2] [%] | IC50 (MIA PaCa-2 [7]) [nM] | SMILES | further results
14 | 42 | 739 | CCN(CC)C(=O)[C@@H](C)Oc1cc2oc(=O)cc(-c3cccc4ccccc34)c2cc1F | 
15 | 60 | 3240 | CCN(CC)C(=O)[C@@H](C)Oc1cc2oc(=O)cc(-c3cccc(Cl)c3)c2cc1F | 
16 | 30 | 400 | CCN(CC)C(=O)[C@@H](C)Oc1cc2oc(=O)cc(-c3ccccc3F)c2cc1F | 
17 | 50 | 1690 | C[C@@H](Oc1cc2oc(=O)cc(-c3ccc(F)cc3Cl)c2cc1F)C(=O)N(C)C1COC1 | 
18 | 31 | 486 | CC1CCN(C(=O)[C@@H](C)Oc2cc3oc(=O)cc(-c4ccc(F)cc4Cl)c3cc2F)CC1 | 
19 | 22 | 139 | C[C@@H](Oc1cc2oc(=O)cc(-c3ccc(F)cc3Cl)c2cc1F)C(=O)NCC(F)F | 
20 | 16 | 78 | C[C@@H](Oc1cc2oc(=O)cc(-c3ccc(F)cc3Cl)c2cc1F)C(=O)N1CCCCC1 | 
21 | 35 | 456 | C[C@@H](Oc1cc2oc(=O)cc(-c3ccc(F)cc3Cl)c2cc1F)C(=O)N1CCCC1 | 
22 | 25 | 171 | C[C@@H](Oc1cc2oc(=O)cc(-c3ccc(F)cc3Cl)c2cc1F)C(=O)N(C)C | 
23 | 44 | 682 | CCN(CC)C(=O)[C@@H](C)Oc1cc2oc(=O)cc(-c3ccccc3)c2cc1F | 
24 | 51 | 1160 | C[C@@H](Oc1cc2oc(=O)cc(-c3ccc(F)cc3Cl)c2cc1F)C(=O)NCCC#N | 
25 | 10 | 14 | CCN(CC)C(=O)[C@@H](C)Oc1cc2oc(=O)cc(-c3ccccc3Cl)c2cc1F | 
26 | 26 | 294 | C[C@@H](Oc1cc2oc(=O)cc(-c3ccc(F)cc3Cl)c2cc1F)C(=O)NCC1CC1 | 
27 | 13 | 44 | CCN(CC)C(=O)[C@@H](C)Oc1cc2oc(=O)cc(-c3ccc(F)cc3Cl)c2cc1F | Ratio IC50 (MIA PaCa-2 [14]): 3
28 | 33 | 493 | C[C@@H](Oc1cc2oc(=O)cc(-c3ccc(F)cc3Cl)c2cc1F)C(=O)N1CCC1 | 
29 | 55 | 2240 | CCN(CC)C(=O)[C@@H](C)Oc1cc2oc(=O)cc(-c3ccc(Cl)cc3)c2cc1F | 
30 | 48 | 1130 | CCN(CC)C(=O)[C@@H](C)Oc1cc2oc(=O)cc(-c3ccccc3OC)c2cc1F | 
